In patent US20160257651A1, “NOVEL COMPOUND WITH ANTIBACTERIAL ACTIVITY” (priority 2013, published 2016) one finds MIC data, which are given here for 1 compound.

In brackets after ≈: the same amount, converted by molar mass.

Assay [1] relates to S. aureus MR5867 three-step mutant. Description: MIC against stepwise QRDR mutants. The class given is cell-based. To be noted: Staphylococcus aureus. The source says: (§1) In order to further verify that the action site of the compound J-131CP is gyrA, there were examined antibacterial activities against the MRSA, S. aureus MR5867, and stepwise-mutated strains (one-step mutant strain to three-step mutant strain) of S. aureus MR5867 in which mutation was introduced into QRDR, as well as the MSSA, S. aureus MS5952, and stepwise-mutated strains (one-step mutant strain to three-step mutant strain) of S. aureus MS5952 in which mutation was introduced into QRDR (those strains mentioned above are described in Antimicrob. Agents Chemother., 42(8), pp. 1917-1922, 1998) by the following methods. The strains used for this test example are available from the inventors of the present invention.
(§2) The compound J-131CP and quinolones were prepared in the same manner as that of Test Example 1-1.
(§3) Then, the cell suspension was diluted 500 times with CAMHB mentioned above.
(§4) CAMHB containing each of the compound J-131CP and quinolones at each concentration was added to each well of a 96-well plate in a volume of 50 μL/well, the aforementioned cell suspension diluted 500 times was added to the well in a volume of 50 μL/well, and stationary culture was carried out overnight at 37° C. in the same manner as that of Test Example 1-1.

The test system of assay [2] is S. aureus MR5867 two-step mutant. The assay can be described thus: MIC against stepwise QRDR mutants. The class given is cell-based. Particulars: Staphylococcus aureus.
Excerpt: as §1, §2, §3, §4

The subject of assay [3] is S. aureus MR5867. Description: MIC against stepwise QRDR mutants. Particulars: Staphylococcus aureus. The class given is cell-based.
Excerpt: as §1, §2, §3, §4

In assay [4] the test system is S. aureus MS5952 three-step mutant. Description: MIC against stepwise QRDR mutants. Particulars: Staphylococcus aureus. Format: cell-based.
Excerpt: as §1, §2, §3, §4

Assay [5] relates to S. aureus MS5952 two-step mutant. Description: MIC against stepwise QRDR mutants. Format: cell-based. Particulars: Staphylococcus aureus.
Excerpt: as §1, §2, §3, §4

Assay [6] concerns S. aureus MS5952. Description: MIC against stepwise QRDR mutants. The class given is cell-based. Particulars: Staphylococcus aureus.
Excerpt: as §1, §2, §3, §4

Assay [7] relates to Staphylococcus aureus ATCC29213 (MSSA). The assay can be described thus: MIC, S. aureus categories (Test Example 3). Particulars: strain ATCC29213, MSSA, read-out: MIC. Format: cell-based. As for the experimental part: (§5) The antibacterial activities of the compound J-131CP against Staphylococcus aureus strains belonging to the five categories of Staphylococcus aureus, i.e., MSSA, MRSA, community-acquired-infection type MRSA (CA-MRSA), VISA, and VRSA, were investigated.
as §2
(§6) Cell suspensions were prepared in the same manner as that of Test Example 1-1 described in the section of measurement of MIC in Test Example 1-1, except that the strains mentioned in Table 6 were used as Staphylococcus aureus, and MICs of the compound J-131CP and quinolones as the control were determined for the strains in the same manner as that of Test Example 1-1. In Table 6, the amino acid substitution mutations in QRDR of the strains are underlined.

Assay [8] has as its system Staphylococcus aureus BR2 (VISA). Description: MIC, S. aureus categories (Test Example 3). Format: cell-based. How it is done:
as §5, §2, §6

The test system of assay [9] is Staphylococcus aureus KSA36 (MRSA). The assay can be described thus: MIC, S. aureus categories (Test Example 3). The class given is cell-based. As for the experimental part: as §5, §2, §6
Assay [10] has as its system Staphylococcus aureus MI (VISA). Description: MIC, S. aureus categories (Test Example 3). Format: cell-based. How it is done: as §5, §2, §6
The test system of assay [11] is Staphylococcus aureus MW2 (CA-MRSA). The assay can be described thus: MIC, S. aureus categories (Test Example 3). Format: cell-based. Particulars: Staphylococcus aureus; strain MW2, CA-MRSA; read-out: MIC. As for the experimental part:
as §5, §2, §6

Assay [12] deals with Staphylococcus aureus NCTC8325 (MSSA). Description: MIC, S. aureus categories (Test Example 3). The class given is cell-based. To be noted: Staphylococcus aureus; strain NCTC8325, MSSA; read-out: MIC. How it is done:
as §5, §2, §6

Assay [13] deals with Staphylococcus aureus USA300FPR (CA-MRSA). Description: MIC, S. aureus categories (Test Example 3). The class given is cell-based. How it is done: as §5, §2, §6
The subject of assay [14] is Staphylococcus aureus VRS1 (VRSA). The assay can be described thus: MIC, S. aureus categories (Test Example 3). Format: cell-based. As for the experimental part: as §5, §2, §6
The test system of assay [15] is Staphylococcus aureus VRS3a (VRSA). Description: MIC, S. aureus categories (Test Example 3). Format: cell-based. How it is done:
as §5, §2, §6

Assay [16] deals with E. faecium NCTC12202. Description: MIC against Enterococcus bacteria. Format: cell-based, Enterococcus faecium. Particulars: Enterococcus faecium, NCTC 12202 / VRE; E. faecium NCTC12202, VRE, quinolone-susceptible; read-out: MIC. As for the experimental part: (§7) Antibacterial activities of the compound J-131CP against Enterococcus bacteria (Enterococcus faecium and Enterococcus faecalis) were examined by the following methods.
as §2
(§8) Cell suspensions were prepared in the same manner as that of Test Example 1-1 described in the section of measurement of MIC in Test Example 1-1, except that the Enterococcus bacterium strains mentioned in Table 8 were used instead of Staphylococcus aureus, and MICs of the compound J-131CP and quinolones as control were determined for the strains in the same manner as that of Test Example 1-1 described in the section of measurement of MIC in Test Example 1-1. In Table 8, the amino acid substitution mutations in QRDR of the strains are underlined.

The test system of assay [17] is E. faecium RPR2. The assay can be described thus: MIC against Enterococcus bacteria. Format: cell-based, Enterococcus faecium. To be noted: Enterococcus faecium, RPR2. As for the experimental part:
as §7, §2, §8

In assay [18] the test system is S. pneumoniae BCLSP37. The assay can be described thus: MIC against pneumococcus, CAMHB with 5 mass % LHB. Format: cell-based, Streptococcus pneumoniae. Particulars: Streptococcus pneumoniae, BCLSP37, S. pneumoniae BCLSP37, PSSP, quinolone-resistant; ParC 79Phe, GyrA 85Lys; read-out: MIC.
The subject of assay [19] is S. pneumoniae KBSP11. Description: MIC against pneumococcus, CAMHB with 5 mass % LHB. Format: cell-based, Streptococcus pneumoniae. To be noted: Streptococcus pneumoniae; S. pneumoniae KBSP11, PRSP, quinolone-susceptible; read-out: MIC.

For orientation: MIC means the lowest concentration that inhibits growth of the organism. As for `CCn1cc(C(=O)O)c(=O)c2cc(F)c(N3CCNCC3)cc21` [NOR, norfloxacin], the MIC in assay [1] is above 128 µg/mL; in [2] it was 64 µg/mL (≈ 200 µM); in assay [3] it was 1 µg/mL (≈ 3.13 µM); in assay [4] it was 128 µg/mL (≈ 401 µM); in assay [5] it was 16 µg/mL (≈ 50.1 µM); in [6] it was 1 µg/mL (≈ 3.13 µM). Further, the MIC in assay [7] was 1 µg/mL (≈ 3.13 µM); in [8] it was 64 µg/mL (≈ 200 µM); in [9], above 128 µg/mL; in [10] it was 128 µg/mL (≈ 401 µM); in [11] it was 0.5 µg/mL (≈ 1.57 µM); in assay [12], 1 µg/mL (≈ 3.13 µM). The MIC is 32 µg/mL (≈ 100 µM) in assay [13]; above 128 µg/mL in [14]; 128 µg/mL (≈ 401 µM) in assay [15]; 2 µg/mL (≈ 6.26 µM) in assay [16]; above 128 µg/mL in assay [17]; 64 µg/mL (≈ 200 µM) in assay [18]. Moreover, the MIC in assay [19] worked out at 4 µg/mL (≈ 12.5 µM).
